Measured values published in US10219513B2, “Safening 4-amino-3-chloro-6-(4-chloro-2-fluoro-3-methoxyphenyl)-5-fluoropyridine-2-carboxylic acid compositions in Brassica species and methods of use thereof” (Dow AgroSciences LLC, priority 2016, dated 2019).
Where “and” joins values, the source holds several entries; their conditions need not be identical. Equal entries are not always repeated.

Columns and labels:
[1] = tested on: Brassica alboglabra (kale/Chinese kale, BRSAG); test: Greenhouse postemergence application, visual injury after 20-22 d, BRSAG
Procedure: (§1) Seeds of the desired test plant species were planted in Sun Gro MetroMix® 306 planting mixture, which typically has a pH of 6.0 to 6.8 and an organic matter content of about 30 percent, in plastic pots with a surface area of 103.2 square centimeters (cm^2). […] The plants were grown for 7-36 days (d) in a greenhouse with an approximate 14-hour (h) photoperiod which was maintained at about 23° C. during the day and 22° C. during the night. Nutrients and water were added on a regular basis and supplemental lighting was provided with overhead metal halide 1000-Watt lamps as necessary. The plants were employed for testing when they reached the second or third true leaf stage.
(§2) An aliquot of formulated benzyl 4-amino-3-chloro-6-(4-chloro-2-fluoro-3-methoxyphenyl)-5-fluoropyridine-2-carboxylate (florpyrauxifen-benzyl; 300 grams active ingredient per liter (g ai/L) suspension concentrate (SC)) was placed in a 25 mL glass vial and diluted in a volume of 1.25% (v/v) aqueous Agri-dex crop oil concentrated to obtain a stock solution. […] The concentrated stock solutions were diluted with an aqueous mixture of 1.25% v/v of aqueous Agri-dex crop oil concentrate to provide the appropriate application rates. Compound requirements are based upon a 12 milliliter (mL) application volume at a rate of 187 liters per hectare (L/ha). Stock solutions of the formulated materials were prepared following the same procedure. Spray solutions of the compound mixtures were prepared by adding the stock solutions to the appropriate amount of dilution solution to form a 12 mL spray solution. Formulated compounds were applied to the plant material with an overhead Mandel track sprayer equipped with 8002E nozzles calibrated to deliver 187 L/ha over an application area of 0.503 square meters (m^2) at a spray height of 18 inches (43 centimeters (cm)) above average plant canopy. Control plants were sprayed in the same manner with the solvent blank.
(§3) The treated plants and control plants were placed in a greenhouse as described above and watered by sub-irrigation to prevent wash-off of the test compounds. After 20-22 d, the condition of the test plants as compared with that of the control plants was determined visually and scored on a scale of 0 to 100 percent where 0 corresponds to no injury and 100 corresponds to complete kill. Colby's equation was used to determine the herbicidal effects expected from the mixtures.
(§4) Benzyl 4-amino-3-chloro-6-(4-chloro-2-fluoro-3-methoxyphenyl)-5-fluoropyridine-2-carboxylate (florpyrauxifen-benzyl, 300 g ai/L SC) was combined in two-, three-, and four-way mixtures with one or more of the following: clopyralid-olamine (as Lontrel™ 35A Herbicidal Concentrate), quinclorac (as Facet 75DF), isoxadifen-ethyl (100 g/L SC), cloquintocet-mexyl (120 g/L EC) or mefenpyr-diethyl (as mefenpyr-diethyl 15WP). The mixtures were applied to kale/Chinese kale (Brassica alboglabra, BRSAG), Juncea canola or brown mustard (Brassica juncea, BRSJU), rutabaga (Brassica napus var. napobrassica, BRSNA), all varieties of canola and oilseed rape (Brassica napus, BRSNN), Nexera™ canola (Brassica napus, BRSNN-NEX), winter oilseed rape (Brassica napus, BRSNW), Roundup Ready® canola (Brassica napus, RR-BRSNN), and turnip or Polish canola (Brassica rapa, BRSRR), and the phytotoxicity of the compositions was measured.
(§5) Colby's equation was used to determine the herbicidal effects expected from the mixtures evaluated in the described trials (Colby, S. R. Calculation of the synergistic and antagonistic response of herbicide combinations. Weeds 1967, 15, 20-22.).
(§6) The following equation was used to calculate the expected activity of mixtures containing two active ingredients, A and B: Expected=A+B−(A×B/100) • A=observed efficacy of active ingredient A at the same concentration as used in the mixture; • B=observed efficacy of active ingredient B at the same concentration as used in the mixture.

[2] = tested on: Brassica napus (winter oilseed rape, BRSNW); test: Greenhouse postemergence application, visual injury after 20-22 d, BRSNW
Procedure: as §1, §2, §3, §4, §5, §6

[3] = tested on: Brassica napus (Nexera canola, BRSNN-NEX); test: Greenhouse postemergence application, visual injury after 20-22 d, BRSNN-NEX
Procedure: as §1, §2, §3, §4, §5, §6

[4] = florpyrauxifen-benzyl 2.5 g ai/ha alone
[5] = florpyrauxifen-benzyl 5 g ai/ha alone
[6] = florpyrauxifen-benzyl 10 g ai/ha alone
[7] = florpyrauxifen-benzyl alone 2.5 g ai/ha
[8] = florpyrauxifen-benzyl alone 5 g ai/ha
[9] = florpyrauxifen-benzyl alone 10 g ai/ha
[10] = postemergence application, greenhouse, application rate (g ai/ha) varies
[11] = isoxadifen-ethyl 5 g ai/ha alone
[12] = isoxadifen-ethyl 10 g ai/ha alone
[13] = isoxadifen-ethyl 20 g ai/ha alone
[14] = isoxadifen-ethyl 40 g ai/ha alone

SMILES: COc1c(Cl)ccc(-c2nc(C(=O)OCc3ccccc3)c(Cl)c(N)c2F)c1F [Florpyrauxifen-benzyl, benzyl 4-amino-3-chloro-6-(4-chloro-2-fluoro-3-methoxyphenyl)-5-fluoropyridine-2-carboxylate]
- % Visual Injury Obs ([1]; BRSAG, 2.5 g ai/ha): 5%
- % Visual Injury Obs ([1]; BRSAG, 5 g ai/ha): 3%
- % Visual Injury Obs ([1]; BRSAG, 10 g ai/ha): 7%
- Obs % visual injury ([1]; BRSAG, florpyrauxifen-benzyl alone 2.5 g ai/ha): 5%
- Obs % visual injury ([1]; BRSAG, florpyrauxifen-benzyl alone 5 g ai/ha): 3%
- Obs % visual injury ([1]; BRSAG, florpyrauxifen-benzyl alone 10 g ai/ha): 7%
- % Visual Injury BRSAG Obs [1, 4]: 5%
- % Visual Injury Obs [1, 4]: 5%
- % Visual Injury BRSAG Obs [1, 5]: 3%
- % Visual Injury Obs [1, 5]: 3%
- % Visual Injury BRSAG Obs [1, 6]: 7%
- % Visual Injury Obs [1, 6]: 7%
- Obs % visual injury BRSAG [1, 7]: 5%
- Obs % visual injury BRSAG [1, 8]: 3%
- Obs % visual injury BRSAG [1, 9]: 7%
- % Visual Injury BRSAG Obs [1, 10]: 3% and 7% and 5%
- % Visual Injury Obs ([2]; BRSNW, 2.5 g ai/ha): 8%
- % Visual Injury Obs ([2]; BRSNW, 5 g ai/ha): 13%
- % Visual Injury Obs ([2]; BRSNW, 10 g ai/ha): 18%
- Obs % visual injury ([2]; BRSNW, florpyrauxifen-benzyl alone 2.5 g ai/ha): 8%
- Obs % visual injury ([2]; BRSNW, florpyrauxifen-benzyl alone 5 g ai/ha): 13%
- Obs % visual injury ([2]; BRSNW, florpyrauxifen-benzyl alone 10 g ai/ha): 18%
- % Visual Injury BRSNW Obs [2, 4]: 8%
- % Visual Injury Obs [2, 4]: 8%
- % Visual Injury BRSNW Obs [2, 5]: 13%
- % Visual Injury Obs [2, 5]: 13%
- % Visual Injury BRSNW Obs [2, 6]: 18%
- % Visual Injury Obs [2, 6]: 18%
- Obs % visual injury BRSNW [2, 7]: 8%
- Obs % visual injury BRSNW [2, 8]: 13%
- Obs % visual injury BRSNW [2, 9]: 18%
- % Visual Injury BRSNW Obs [2, 10]: 8% and 13% and 18%
- % Visual Injury Obs ([3]; BRSNN-NEX, 2.5 g ai/ha): 7%
- % Visual Injury Obs ([3]; BRSNN-NEX, 5 g ai/ha): 12%
- % Visual Injury Obs ([3]; BRSNN-NEX, 10 g ai/ha): 19%
- Obs % visual injury ([3]; BRSNN-NEX, florpyrauxifen-benzyl alone 2.5 g ai/ha): 7%
- Obs % visual injury ([3]; BRSNN-NEX, florpyrauxifen-benzyl alone 5 g ai/ha): 12%
- Obs % visual injury ([3]; BRSNN-NEX, florpyrauxifen-benzyl alone 10 g ai/ha): 19%
- % Visual Injury BRSNN-NEX Obs [3, 4]: 7%
- % Visual Injury Obs [3, 4]: 7%
- % Visual Injury BRSNN-NEX Obs [3, 5]: 12%
- % Visual Injury Obs [3, 5]: 12%
- % Visual Injury BRSNN-NEX Obs [3, 6]: 19%
- % Visual Injury Obs [3, 6]: 19%
- Obs % visual injury BRSNN-NEX [3, 7]: 7%
- Obs % visual injury BRSNN-NEX [3, 8]: 12%
- Obs % visual injury BRSNN-NEX [3, 9]: 19%

SMILES: CCOC(=O)C1=NOC(c2ccccc2)(c2ccccc2)C1 [Isoxadifen-ethyl, ethyl 4,5-dihydro-5,5-diphenyl-1,2-oxazole-3-carboxyalte]
- % Visual Injury Obs ([1]; BRSAG, 5 g ai/ha): 0%
- % Visual Injury Obs ([1]; BRSAG, 10 g ai/ha): 0%
- % Visual Injury Obs ([1]; BRSAG, 20 g ai/ha): 0%
- % Visual Injury Obs ([1]; BRSAG, 40 g ai/ha): 0%
- Obs % visual injury ([1]; BRSAG, partner alone 5 g ai/ha): 0%
- Obs % visual injury ([1]; BRSAG, partner alone 10 g ai/ha): 0%
- Obs % visual injury ([1]; BRSAG, partner alone 20 g ai/ha): 0%
- Obs % visual injury ([1]; BRSAG, partner alone 40 g ai/ha): 0%
- % Visual Injury Obs [1, 11]: 0%
- % Visual Injury Obs [1, 12]: 0%
- % Visual Injury Obs [1, 13]: 0%
- % Visual Injury Obs [1, 14]: 0%
- % Visual Injury BRSAG Obs [1, 10]: 0%
- % Visual Injury Obs ([2]; BRSNW, 5 g ai/ha): 0%
- % Visual Injury Obs ([2]; BRSNW, 10 g ai/ha): 0%
- % Visual Injury Obs ([2]; BRSNW, 20 g ai/ha): 0%
- % Visual Injury Obs ([2]; BRSNW, 40 g ai/ha): 0%
- Obs % visual injury ([2]; BRSNW, partner alone 5 g ai/ha): 0%
- Obs % visual injury ([2]; BRSNW, partner alone 10 g ai/ha): 0%
- Obs % visual injury ([2]; BRSNW, partner alone 20 g ai/ha): 0%
- Obs % visual injury ([2]; BRSNW, partner alone 40 g ai/ha): 0%
- % Visual Injury Obs [2, 11]: 0%
- % Visual Injury Obs [2, 12]: 0%
- % Visual Injury Obs [2, 13]: 0%
- % Visual Injury Obs [2, 14]: 0%
- % Visual Injury BRSNW Obs [2, 10]: 0%
- % Visual Injury Obs ([3]; BRSNN-NEX, 5 g ai/ha): 0%
- % Visual Injury Obs ([3]; BRSNN-NEX, 10 g ai/ha): 0%
- % Visual Injury Obs ([3]; BRSNN-NEX, 20 g ai/ha): 0%
- % Visual Injury Obs ([3]; BRSNN-NEX, 40 g ai/ha): 0%
- Obs % visual injury ([3]; BRSNN-NEX, partner alone 5 g ai/ha): 0%
- Obs % visual injury ([3]; BRSNN-NEX, partner alone 10 g ai/ha): 0%
- Obs % visual injury ([3]; BRSNN-NEX, partner alone 20 g ai/ha): 0%
- Obs % visual injury ([3]; BRSNN-NEX, partner alone 40 g ai/ha): 0%
- % Visual Injury Obs [3, 11]: 0%
- % Visual Injury Obs [3, 12]: 0%
- % Visual Injury Obs [3, 13]: 0%
- % Visual Injury Obs [3, 14]: 0%
- % Visual Injury BRSNN-NEX Obs [3, 10]: 0%

SMILES: O=C(O)c1c(Cl)ccc2cc(Cl)cnc12 [Quinclorac, 3,7-dichloro-8-quinolinecarboxylic acid]
- % Visual Injury Obs ([1]; BRSAG, 50 g ai/ha): 0%
- % Visual Injury Obs ([1]; BRSAG, 100 g ai/ha): 0%
- % Visual Injury Obs ([1]; BRSAG, 200 g ai/ha): 0%
- Obs % visual injury ([1]; BRSAG, partner alone 50 g ai/ha): 0%
- Obs % visual injury ([1]; BRSAG, partner alone 100 g ai/ha): 0%
- Obs % visual injury ([1]; BRSAG, partner alone 200 g ai/ha): 0%
- % Visual Injury BRSAG Obs [1, 10]: 0%
- % Visual Injury BRSAG Obs ([1]; quinclorac 50 g ai/ha alone): 0%
- % Visual Injury BRSAG Obs ([1]; quinclorac 100 g ai/ha alone): 0%
- % Visual Injury BRSAG Obs ([1]; quinclorac 200 g ai/ha alone): 0%
- % Visual Injury Obs ([2]; BRSNW, 50 g ai/ha): 0%
- % Visual Injury Obs ([2]; BRSNW, 100 g ai/ha): 0%
- % Visual Injury Obs ([2]; BRSNW, 200 g ai/ha): 0%
- Obs % visual injury ([2]; BRSNW, partner alone 50 g ai/ha): 0%
- Obs % visual injury ([2]; BRSNW, partner alone 100 g ai/ha): 0%
- Obs % visual injury ([2]; BRSNW, partner alone 200 g ai/ha): 0%
- % Visual Injury BRSNW Obs [2, 10]: 0%
- % Visual Injury BRSNW Obs ([2]; quinclorac 50 g ai/ha alone): 0%
- % Visual Injury BRSNW Obs ([2]; quinclorac 100 g ai/ha alone): 0%
- % Visual Injury BRSNW Obs ([2]; quinclorac 200 g ai/ha alone): 0%
- % Visual Injury Obs ([3]; BRSNN-NEX, 50 g ai/ha): 0%
- % Visual Injury Obs ([3]; BRSNN-NEX, 100 g ai/ha): 0%
- % Visual Injury Obs ([3]; BRSNN-NEX, 200 g ai/ha): 0%
- Obs % visual injury ([3]; BRSNN-NEX, partner alone 50 g ai/ha): 0%
- Obs % visual injury ([3]; BRSNN-NEX, partner alone 100 g ai/ha): 0%
- Obs % visual injury ([3]; BRSNN-NEX, partner alone 200 g ai/ha): 0%
- % Visual Injury BRSNN-NEX Obs [3, 10]: 0%
- % Visual Injury BRSNN-NEX Obs ([3]; quinclorac 50 g ai/ha alone): 0%
- % Visual Injury BRSNN-NEX Obs ([3]; quinclorac 100 g ai/ha alone): 0%
- % Visual Injury BRSNN-NEX Obs ([3]; quinclorac 200 g ai/ha alone): 0%
